According to patent US20120156139A1, “ISOTOPICALLY LABELED NEUROCHEMICAL AGENTS AND USES THEROF FOR DIAGNOSING CONDITIONS AND DISORDERS” (priority 2009, published 2012):

Assays:
Format in all cases: physicochemical
[1] = 13C T1 inversion recovery studies of L-DOPA, dopamine and partially deuterated dopamine; settings: for T1 of C1 / T1 of C2 / T1 of C3: 13C at natural abundance, inversion recovery, 500 MHz scanner; for Elongation factor, T1 of C1 / Elongation factor, T1 of C2 / Elongation factor, T1 of C3: relative to dopamine HCl (A)
Method: Inversion recovery studies were carried out on protonated L-DOPA and dopamine and partially deuterated dopamine a in order to determine the ^13C T1 relaxation times in these molecules. The inversion recovery studies were carried out on a 500 MHz scanner (Varian), equipped with a 5 mm double tuned ^13C/^1H probe. Carbon-13 signals were detected in these molecules at natural abundance. The number of transitions ranged between 300 to 400 per relaxation delay (t) with a total scanning time of 12 to 48 hours. Dopamine HCl and L-DOPA were obtained from Sigma-Aldrich (Israel). [1,1,2,2-D4]-Dopamine HCl, and [D3-ring, 2,2-D2]-Dopamine were obtained from Cambridge Isotope Laboratories (MA, USA).

[2] = T1 of position 2 in [1,1,2,2-D4,2-13C]-choline at various magnetic field strengths and temperatures; settings: for Liquid state T1 of position 2: DNP-enhanced liquid state sample, 14.1 T
Method: The T1 of position 2 in [1,1,2,2-D4,2-^13C]-choline was further investigated at various magnetic field strengths and temperatures. The liquid state T1 was measured on a DNP-enhanced liquid state sample at 14.1 T at approx. 37° C. (T1=48±2 sec) and at higher temperatures of between about 40 to about 50° C. (T1=56±4 sec).
In addition, thermal equilibrium T1 measurement was performed at 9.4 T at 37° C. (T1=41 sec). The low field T1 of [1,1,2,2-D4,2-^13C]-choline was estimated by placing the enhanced sample in the fringe field of an unshielded 14.1 T magnet (n=2). From this experiment it was concluded that the low field T1 is long (>40 s) and that the T1 of the deuterated methylene carbon in choline is less affected by field strength.

[3] = 13C T1 inversion recovery studies of choline and deuterated cholines at 11.8 T; settings: for Elongation factor, T1 of C1 / Elongation factor, T1 of C2: relative to choline Cl- (A)
Method: The data in Table 2 were obtained using a series of inversion recovery studies at 11.8 T which were carried out in order to determine the ^13C T1 relaxation times of a deuterated choline molecule and of a partially deuterated choline molecule [1,1,2,2-D4]-choline Cr. The T1 of the trimethyl amine position in the fully deuterated choline molecule was 28 sec, which represented an approximate 8 fold elongation factor compared to the native choline molecule in which the trimethyl amine positions are protonated. Inversion recovery studies were carried out on a 500 MHz scanner (Varian), equipped with a 5 mm double tuned ^13C/^1H probe. Carbon-13 signals were detected in these molecules at natural abundance. The number of transitions ranged between 300 to 400 per relaxation delay (r) with a total scanning time of 12 to 67 hours due to a relaxation delay of 130 sec. The data were fitted to the standard inversion recovery equation. The possible effect of concentration on T1 was investigated in a concentration range of 20 mM to […], no significant effect of concentration on T1 was found in this concentration range. Choline Cl^− and [1,1,2,2-D4]-Choline CU were obtained from Sigma-Aldrich (Israel). Choline-D13 Br^− (fully deuterated) was obtained from Cambridge Isotope Laboratories (MA, USA).

[4] = T1 values of additional deuterated compounds
[5] = 13C at natural abundance, inversion recovery, 11.8 T

| Compound | T1 of C1 [1] | T1 of C2 [1] | T1 of C3 [1] | T1 of C1 [3, 5] | T1 of C2 [3, 5] | also measured |
| --- | --- | --- | --- | --- | --- | --- |
| Cl.[2H]c1c([2H])c(C([2H])([2H])CN)c([2H])c(O)c1O [[D3 ring,2,2-D2]-dopamine HCl] | 1.0 s | 4.4 s | 5.4 s | – | – | Elongation factor, T1 of C1 [1]: 1.0; Elongation factor, T1 of C2 [1]: 4.4; Elongation factor, T1 of C3 [1]: 0.8 |
| [2H]C([2H])(O)[13C]([2H])([2H])[N+](C)(C)C [[1,1,2,2-D4,2-^13C]-choline] | – | – | – | – | – | Thermal equilibrium T1 ([2]; 9.4 T, 37 °C): 41 s; Liquid state T1 of position 2 ([2]; about 40 to about 50 °C): 56 ± 4 s; Liquid state T1 of position 2 ([2]; approx. 37 °C): 48 ± 2 s; Low field T1 ([2]; enhanced sample in the fringe field of an unshielded 14.1 T magnet, n=2, estimated): > 40 s |
| Cl.NCCc1ccc(O)c(O)c1 [dopamine HCl] | 1.1 s | 1.0 s | 6.4 s | – | – | – |
| [2H]C([2H])(O)C([2H])([2H])[N+](C([2H])([2H])[2H])(C([2H])([2H])[2H])C([2H])([2H])[2H].[Br-] [[D13]-choline Br^−] | – | – | – | 32.0 s | 32.9 s | T1 of the trimethyl amine position [3, 5]: 28 s; Elongation factor of T1 of the trimethyl amine position ([3]; compared to the native choline molecule with protonated trimethyl amine positions): ~8 fold; Elongation factor, T1 of C1 ([3]; 11.8 T): 6.2; Elongation factor, T1 of C2 ([3]; 11.8 T): 6.7 |
| N[C@@H](Cc1ccc(O)c(O)c1)C(=O)O [L-DOPA (non deuterated), L-DOPA] | 2.3 s | 2.3 s | 3.9 s | – | – | – |
| [2H]C([2H])(O)C([2H])([2H])[N+](C)(C)C.[Cl-] [[1,1,2,2-D4]-choline Cl^−] | – | – | – | 29.1 s | 34.9 s | Elongation factor, T1 of C1 ([3]; 11.8 T): 5.6; Elongation factor, T1 of C2 ([3]; 11.8 T): 7.1 |
| C[N+](C)(C)CCO.[Cl-] [choline Cl^−] | – | – | – | 5.2 s | 4.9 s | – |
| [2H]C([2H])(NC(=N)N)C([2H])([2H])C([2H])([2H])[C@]([2H])(N)C(=O)O [[2,3,3,4,4,5,5-D7]-arginine, [2,3,3,4,4,5,5-D7]-arginine: NH2C(NH)NHCD2CD2CD2CD(NH2)CO2H] | – | – | – | – | – | T1 of carbons at positions 2, 3, 4, and 5 [4]: ~8 s |
| Cl.[2H]C([2H])(N)C([2H])([2H])c1ccc(O)c(O)c1 [[1,1,2,2-D4]-dopamine HCl] | 8.7 s | 9.3 s | 6.3 s | – | – | Elongation factor, T1 of C1 [1]: 7.9; Elongation factor, T1 of C2 [1]: 9.3; Elongation factor, T1 of C3 [1]: 1.0 |
| [2H]c1c([2H])c([2H])c2c(C([2H])([2H])[C@]([2H])(N)C(=O)O)c[nH]c2c1[2H] [[D7]-L-tryptophan, [D7]-L-tryptophan: C6D4C(CD2-CD(NH2)COOH)CH—NH] | – | – | – | – | – | T1 of position 10 ([4]; dissolved in H2O and 15% D2O (54.5 mM), 11.8 T): ~13 s |
